Results from PubChem BioAssay AID330 (DTP/NCI, 2004).
Values joined by “and” are separate entries in the source; they are usually repeats but may differ in a detail not shown here. Identical values can stand only once. Inconclusive results and toxic doses are left out.

System: P388 leukemia ip, CD2F1 mice, survival T/C
Assay: NCI In Vivo Anticancer Drug Screen. Data for tumor model P388 Leukemia (intraperitoneal) in CD2F1 (CDF1) mice
Settings: endpoint: median survival time, higher = longer survival
In short: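 Mice carrying the transplanted tumor received test compound or vehicle. Survival was recorded in each group, and the value is the treated-group measurement divided by that of the vehicle-treated control group.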

[1] = dose: 50.0 mg/kg/injection, schedule: Q01DX009 (ip), vehicle: saline with Tween-80
[2] = dose: 100.0 mg/kg/injection, schedule: Q01DX009 (ip), vehicle: saline with Tween-80
[3] = dose: 200.0 mg/kg/injection, schedule: Q01DX009 (ip), vehicle: saline with Tween-80
[4] = dose: 50.0 mg/kg/injection, schedule: Q01DX009 (ip), vehicle: saline
[5] = dose: 100.0 mg/kg/injection, schedule: Q01DX009 (ip), vehicle: saline
[6] = dose: 200.0 mg/kg/injection, schedule: Q01DX009 (ip), vehicle: saline
[7] = dose: 50.0 mg/kg/injection, schedule: Q01DX005 (ip), vehicle: saline with Tween-80
[8] = dose: 100.0 mg/kg/injection, schedule: Q01DX005 (ip), vehicle: saline with Tween-80
[9] = dose: 100.0 mg/kg/injection, schedule: Q04DX003 (ip), vehicle: saline
[10] = dose: 200.0 mg/kg/injection, schedule: Q04DX003 (ip), vehicle: saline
[11] = dose: 400.0 mg/kg/injection, schedule: Q04DX003 (ip), vehicle: saline

Q: How did the T/C (dose: 60.0 mg/kg/injection, schedule: Q01DX005 (ip), vehicle: saline) turn out when `COC(=O)C(=O)C(C(=O)C=C(C)C)c1nc2n(c1O)C(=N)N=N2` (centres undefined) was run?
A: 116 % of control

Q: And the T/C (dose: 120.0 mg/kg/injection, schedule: Q01DX005 (ip), vehicle: saline)?
A: 107 % of control

Q: What about the T/C (dose: 240.0 mg/kg/injection, schedule: Q01DX005 (ip), vehicle: saline) of the same compound?
A: 104 % of control

Q: Which results are given for `CN1C(=O)N/C(=C2/CCOC2=O)C1=O`?
A: T/C [1]: 106 % of control; T/C [2]: 88 % of control; T/C [3]: 98 % of control

Q: For `COC(=O)c1ccccc1N=Nc1ccc(N(CCCl)CCCl)cc1`, which T/C (dose: 50.0 mg/kg/injection, schedule: Q01DX001 (ip), vehicle: Klucel (hydroxypropylcellulose) (HPC)) is on record?
A: 112 % of control

Q: What about the T/C (dose: 100.0 mg/kg/injection, schedule: Q01DX001 (ip), vehicle: Klucel (hydroxypropylcellulose) (HPC)) of the same compound?
A: 108 % of control

Q: And the T/C (dose: 200.0 mg/kg/injection, schedule: Q01DX001 (ip), vehicle: Klucel (hydroxypropylcellulose) (HPC))?
A: 113 % of control

Q: For `CC1=C(C)OP(=O)(O)O1`, which T/C [1] is on record?
A: 100 % of control

Q: What about the T/C [4] of the same compound?
A: 100 % of control

Q: And the T/C [2]?
A: 100 % of control

Q: What about the T/C [5] of the same compound?
A: 96 % of control

Q: And the T/C [3]?
A: 95 % of control

Q: What about the T/C [6] of the same compound?
A: 100 % of control

Q: Which results are given for `COc1cc2c(cc1OC)C(OC)N(C)c1c-2ccc2cc3c(cc12)OCO3` (centres undefined)?
A: T/C (dose: 2.0 mg/kg/injection, schedule: Q01DX009 (ip), vehicle: water): 122 % of control; T/C (dose: 2.0 mg/kg/injection, schedule: Q03HX008 (ip), vehicle: water): 109 % of control; T/C (dose: 4.0 mg/kg/injection, schedule: Q01DX009 (oral), vehicle: water): 104 % of control; T/C (dose: 4.0 mg/kg/injection, schedule: Q01DX009 (sc), vehicle: water): 104 % of control; T/C (dose: 4.0 mg/kg/injection, schedule: Q03HX008 (ip), vehicle: water): 122 % of control; T/C (dose: 8.0 mg/kg/injection, schedule: Q01DX009 (oral), vehicle: water): 100 % of control; T/C (dose: 8.0 mg/kg/injection, schedule: Q01DX009 (sc), vehicle: water): 100 % of control; T/C (dose: 8.0 mg/kg/injection, schedule: Q04DX003 (ip), vehicle: water): 119 % of control; T/C (dose: 16.0 mg/kg/injection, schedule: Q01DX001 (ip), vehicle: water): 107 % of control; T/C (dose: 16.0 mg/kg/injection, schedule: Q01DX009 (oral), vehicle: water): 101 % of control; T/C (dose: 16.0 mg/kg/injection, schedule: Q01DX009 (sc), vehicle: water): 97 % of control; T/C (dose: 16.0 mg/kg/injection, schedule: Q04DX003 (ip), vehicle: water): 122 % of control; T/C (dose: 16.0 mg/kg/injection, schedule: Q08DX002 (ip), vehicle: water): 109 % of control; T/C (dose: 25.0 mg/kg/injection, schedule: Q01DX009 (ip), vehicle: other): 158 % of control; T/C (dose: 32.0 mg/kg/injection, schedule: Q01DX001 (ip), vehicle: water): 104 % of control; T/C (dose: 32.0 mg/kg/injection, schedule: Q01DX009 (ip), vehicle: saline): 90 % of control; T/C (dose: 32.0 mg/kg/injection, schedule: Q01DX009 (oral), vehicle: water): 101 % of control; T/C (dose: 32.0 mg/kg/injection, schedule: Q01DX009 (sc), vehicle: water): 88 % of control; T/C (dose: 32.0 mg/kg/injection, schedule: Q04DX003 (ip), vehicle: water): 124 % of control; T/C (dose: 32.0 mg/kg/injection, schedule: Q08DX002 (ip), vehicle: water): 119 % of control; T/C (dose: 37.5 mg/kg/injection, schedule: Q01DX009 (ip), vehicle: saline with Tween-80): 118 % of control; T/C (dose: 44.0 mg/kg/injection, schedule: Q04DX003 (ip), vehicle: saline with Tween-80): 154 % of control; T/C (dose: 64.0 mg/kg/injection, schedule: Q01DX001 (ip), vehicle: water): 106 % of control; T/C (dose: 64.0 mg/kg/injection, schedule: Q01DX009 (oral), vehicle: water): 109 % of control; T/C (dose: 64.0 mg/kg/injection, schedule: Q04DX003 (ip), vehicle: water): 106 % of control; T/C (dose: 64.0 mg/kg/injection, schedule: Q08DX002 (ip), vehicle: water): 109 % of control; T/C (dose: 66.0 mg/kg/injection, schedule: Q04DX003 (ip), vehicle: saline with Tween-80): 154 % of control and 181 % of control; T/C (dose: 75.0 mg/kg/injection, schedule: Q01DX009 (ip), vehicle: saline with Tween-80): 86 % of control; T/C (dose: 150.0 mg/kg/injection, schedule: Q04DX003 (ip), vehicle: saline with Tween-80): 90 % of control

Q: With `CNC(=O)OCC1(OC(=O)NC)OC(COC(=O)NC)(OC(=O)NC)C(OC(=O)NC)C1OC(=O)NC` (centres undefined) as the compound, how does the T/C (dose: 50.0 mg/kg/injection, schedule: Q01DX005 (ip), vehicle: saline) read?
A: 104 % of control

Q: And the T/C (dose: 100.0 mg/kg/injection, schedule: Q01DX005 (ip), vehicle: saline)?
A: 91 % of control

Q: What about the T/C (dose: 200.0 mg/kg/injection, schedule: Q01DX005 (ip), vehicle: saline) of the same compound?
A: 101 % of control

Q: Which T/C [7] does the source give for `c1ccc(/C(=N\Nc2nc3ccccc3s2)c2ccccn2)cc1` here?
A: 104 % of control

Q: What about the T/C [8] of the same compound?
A: 109 % of control

Q: And the T/C (dose: 200.0 mg/kg/injection, schedule: Q01DX005 (ip), vehicle: saline with Tween-80)?
A: 95 % of control

Q: How did the T/C (dose: 16.0 mg/kg/injection, schedule: Q01DX009 (ip), vehicle: saline with Tween-80) turn out when `Cc1cc2nc3c(=O)[nH]c(=O)nc-3n(CC=O)c2cc1C` was run?
A: 92 % of control

Q: What about the T/C (dose: 32.0 mg/kg/injection, schedule: Q01DX009 (ip), vehicle: saline with Tween-80) of the same compound?
A: 91 % of control

Q: What about the T/C (dose: 64.0 mg/kg/injection, schedule: Q01DX009 (ip), vehicle: saline with Tween-80) of the same compound?
A: 90 % of control

Q: What about the T/C (dose: 128.0 mg/kg/injection, schedule: Q01DX009 (ip), vehicle: saline with Tween-80) of the same compound?
A: 90 % of control

Q: And the T/C (dose: 135.0 mg/kg/injection, schedule: Q01DX009 (ip), vehicle: saline with Tween-80)?
A: 104 % of control

Q: And the T/C (dose: 180.0 mg/kg/injection, schedule: Q01DX009 (ip), vehicle: saline with Tween-80)?
A: 104 % of control

Q: And the T/C (dose: 240.0 mg/kg/injection, schedule: Q01DX009 (ip), vehicle: saline with Tween-80)?
A: 104 % of control

Q: And the T/C (dose: 256.0 mg/kg/injection, schedule: Q01DX009 (ip), vehicle: saline with Tween-80)?
A: 102 % of control

Q: And the T/C (dose: 320.0 mg/kg/injection, schedule: Q01DX009 (ip), vehicle: saline with Tween-80)?
A: 102 % of control

Q: With `COc1ccc(C2=C(C#N)C(=O)OCCN2C)cc1` as the compound, how does the T/C (dose: 60.0 mg/kg/injection, schedule: Q01DX005 (ip), vehicle: saline with Tween-80) read?
A: 94 % of control

Q: What about the T/C (dose: 120.0 mg/kg/injection, schedule: Q01DX005 (ip), vehicle: saline with Tween-80) of the same compound?
A: 100 % of control

Q: And the T/C (dose: 240.0 mg/kg/injection, schedule: Q01DX005 (ip), vehicle: saline with Tween-80)?
A: 101 % of control

Q: With `O=C(O)C/[N+]([O-])=N\O` as the compound, how does the T/C [4] read?
A: 102 % of control

Q: What about the T/C [5] of the same compound?
A: 102 % of control

Q: And the T/C [9]?
A: 104 % of control

Q: What about the T/C [6] of the same compound?
A: 96 % of control

Q: And the T/C [10]?
A: 105 % of control

Q: And the T/C (dose: 400.0 mg/kg/injection, schedule: Q01DX009 (ip), vehicle: saline)?
A: 94 % of control

Q: What about the T/C [11] of the same compound?
A: 92 % of control

Q: With `C=[CH][Sn]([Cl])([Cl])[CH]=C.COc1ccc(P(=O)(c2ccc(OC)cc2)c2ccc(OC)cc2)cc1` as the compound, how does the T/C (dose: 25.0 mg/kg/injection, schedule: Q04DX003 (ip), vehicle: saline) read?
A: 100 % of control and 113 % of control

Q: And the T/C (dose: 50.0 mg/kg/injection, schedule: Q04DX003 (ip), vehicle: saline)?
A: 100 % of control and 111 % of control

Q: What about the T/C [9] of the same compound?
A: 100 % of control and 115 % of control and 120 % of control

Q: What about the T/C [10] of the same compound?
A: 100 % of control and 111 % of control

Q: And the T/C [11]?
A: 117 % of control

Q: Which results are given for `Nc1nc2nn(-c3ccc(C(=O)NC(CCC(=O)O)C(=O)O)cc3)nc2c(=O)[nH]1` (centres undefined)?
A: T/C (dose: 12.5 mg/kg/injection, schedule: Q01DX009 (ip), vehicle: Klucel (hydroxypropylcellulose) (HPC)): 95 % of control; T/C (dose: 25.0 mg/kg/injection, schedule: Q01DX009 (ip), vehicle: Klucel (hydroxypropylcellulose) (HPC)): 94 % of control; T/C (dose: 50.0 mg/kg/injection, schedule: Q01DX009 (ip), vehicle: Klucel (hydroxypropylcellulose) (HPC)): 94 % of control; T/C (dose: 100.0 mg/kg/injection, schedule: Q01DX009 (ip), vehicle: Klucel (hydroxypropylcellulose) (HPC)): 96 % of control

Q: What does the source list for `[CH2-]N(CC)CC.[CH2-]N(CC)CC.[Rh].[Rh].[Rh].[c-]1[c-][c-][cH-][c-]1.[c-]1[c-][c-][cH-][c-]1.[c-]1[c-][c-][cH-][c-]1`?
A: T/C (dose: 6.25 mg/kg/injection, schedule: Q04DX002 (ip), vehicle: saline): 108 % of control and 96 % of control; T/C (dose: 12.5 mg/kg/injection, schedule: Q04DX002 (ip), vehicle: saline): 113 % of control and 115 % of control and 91 % of control; T/C (dose: 25.0 mg/kg/injection, schedule: Q04DX002 (ip), vehicle: saline): 99 % of control and 103 % of control and 113 % of control; T/C (dose: 50.0 mg/kg/injection, schedule: Q04DX002 (ip), vehicle: saline): 104 % of control and 91 % of control

Q: For `NC(=O)C(Br)(Br)C(=O)c1nc(N)nc(N)n1`, which T/C [7] is on record?
A: 107 % of control

Q: And the T/C [8]?
A: 99 % of control
